The results in this text go back to US20230398234A1, “NOVEL FUNGAL COMPOIND FORMULATIONS AND THEIR THERAPEUTIC METHODS OF USE” (priority 2020, published 2023).

The conditions of the data set: UPLC quantification of cordycepin; variable mass ratios; FIG. 2.

`Nc1ncnc2c1ncn2[C@@H]1O[C@H](CO)C[C@H]1O` [Cordycepin, 3′-deoxyadenosine]: the “solubility of Cordycepin in Cordyceps extract, TPGS solution vs pure water” value is listed as “did not increase the solubility”.
